Results taken from patent publication US20240385182A1, “MASKED FLUOROGENIC LIPID COMPOUNDS, LIPID PARTICLES COMPRISING THE SAME, AND METHODS OF USE THEREOF” (Rutgers, The State University of New Jersey, priority 2023, published 2024).

Legend:
[1] = Photophysical characterization of probes and uncaged forms (relative fluorescence quantum yield, extinction coefficient, brightness); assay type: physicochemical; conditions: for Brightness: in M⁻¹·cm⁻¹ (unit assumed)
Procedure: The pKa of TEG-TC was determined to be 7.1±0.1 using UV-Vis spectrophotometric measurements. Under the confocal imaging conditions (pH 7.5-8.5 with cell-free assays, pH 7.4 with cells), a substantial population of the 7-hydroxycoumarin should exist in its aryloxide form. The change in coumarin fluorogenicity was assessed upon uncaging the probes from the oxobutylphenyl carbonate by measuring the relative fluorescence quantum yield (ΦFrel) values (Table 2). Coumarin 343 was used as a standard, which has an absolute fluorescence quantum yield ([…]) of 0.63 in ethanol. The ΦFrel values of TEG-TC-ONOO^− (entry 1) and DPPC-TC-ONOO^− (entry 3) were measured as 0.08 and 0.09, respectively. […] The ΦFrel values for TEG-TC (entry 2) and DPPC-TC (entry 4), which were synthesized independently, were measured as 0.66 and 0.64, respectively.
Next, the impact of caging and uncaging of the coumarin or fluorescein moieties on their fluorogenicity was assessed by measuring the relative fluorescence quantum yield (ΦFrel) values (Table 3). Coumarin 343 was used as the standard for measuring ΦFrel of the triazole-coumarin compounds (TEG-TC-H2S, TEG-TC, DPPC-TC-H2S, and DPPC-TC) whereas fluorescein for the triazole-fluorescein compounds (TEG-TF-H2O2, TEG-TF, and DPPC-TF-H2O2, and DPPC-TF). Relative to coumarin 343, whose absolute fluorescence quantum yield (ΦF) is 0.63 in ethanol, ΦFrels of the H2S probes TEG-TC-H2S (entry 1) and DPPC-TC-H2S (entry 3) were determined to be 0.07 and 0.03, respectively.
The pKa of TEG-TC was previously found to be to be 7.1±0.1 using UV-Vis spectrophotometric measurements. Under the fluorescence activation assay conditions that are employed here (Tris 50 mM, pH 7.5), a substantial population of the coumarin moiety is expected to be in its aryloxide anion form. Relative to fluorescein, whose ΦF is 0.79 in ethanol, ΦFrel values of the H2O2 probes TEG-TF-H2O2 (entry 5) and DPPC-TF-H2O2 (entry 7) were determined to be 0.04 and 0.02, respectively.

HeLa and RAW 264.7 cells = assay: MTT cell viability assay; assay type: cell-based; conditions: 8-250 μM, 24-hour period
Procedure: With a feasible liposome preparation and treatment protocol established for live cell imaging, attention was turned to assessing the cytocompatibility of the LNPs, with or without DPPC-TC-ONOO^−, DPPC-TC, and the oxa-spiro[4,5] decenone 6a. A standard 3-(4,5-dimethylthiazol-2-yl)-2,5-diphenyl tetrazolium bromide (MTT) cell viability assay in HeLa and RAW 264.7 cells treated with these molecules (8-250 μM) over a 24-hour period. The dose-response curves provided high IC50 values for each compound: DPPC-TC-ONOO− (≥100 μM), DPPC-TC (≥50 μM), and 6 (≥70 μM).

HeLa cells = assay: Confocal imaging and colocalization in live HeLa cells; assay type: cell-based; conditions: LNPs, no stimulation
Procedure: FIGS. 9A-9E: confocal imaging of lipid environments targeted by ONOO^− in live HeLa cells. Cells were seeded into glass microscope dishes, incubated with LNPs (50 μM) and stained with organelle trackers and/or actin dye prior to imaging. LNPs obtained from a 47.5:47.5:5.0 molar ratio of DOTMA, DOPE, and DPPC-TC-ONOO^−. FIG. 9A: cells treated with LNPs, stimulated with IFN-γ/LPS/PMA. Time coarse images acquired upon PMA treatment. FIG. 9B: cells treated with LNPs and 1400 W. FIG. 9C: cells treated with LNPs, then with 1400 W and IFN-γ/LPS/PMA. FIGS. 9D-9E: quantitative colocalization study of cells treated with LNPs and stimulated with IFN-γ/LPS/PMA. Pearson's correlation coefficient (PCC) was calculated for quantitative assessment. Organelle trackers: ER-Tracker™, MitoTracker™, CellLight™ Golgi-RFP, LysoTracker™. Cell cytoskeleton was assessed with CellMask™ Deep Red Actin Tracking Stain. DPPC-TC channel: 405/475 nm. Scale bars=20 μm (FIGS. 9A-9D) or 5 μm (FIG. 9E). With the utility of DPPC-TC-ONOO^− proven in synthetic protocell membranes, incorporation into live HeLa and RAW 264.7 cells was sought, which are relevant to redox-induced stress and have well-recognized pathways for RNS and ROS production. Lipid nanoparticles (LNPs) (˜100 nm in diameter) was used to deliver DPPC-TC-ONOO− into cells. This method circumvented the limited solubility of DPPC-TC-ONOO− due to the relatively hydrophobic butanone-coumarin motif. LNPs were obtained via sonication from 1,2-di-O-octadecenyl-3-trimethylammonium propane (DOTMA), 1,2-dioleoyl-sn-glycero-3-phosphoethanolamine (DOPE), and DPPC-TC-ONOO− (47.5:47.5:5.0 molar ratio), which were hydrated with a 300 mM sucrose solution. DOTMA and DOPE were chosen as the carrier lipids due to their cationic/zwitterionic natures, which has been postulated to enhance uptake through the cell membrane. The impact of different LNP compositions and incubation times on the cellular incorporation of DPPC-TC-ONOO^− was assessed. […] Specifically, LNPs containing greater than 10 mol % DPPC-TC-ONOO− were considerably more heterogenous in size (up to […] observed, in contrast to ˜100 nm) and nonuniform in vesicle lamellarity. Those with less than 4 mol % DPPC-TC-ONOO− led to insufficient fluorescence signal. To balance these counteracting factors, 5 mol % DPPC-TC-ONOO− was used, with 47.5 mol % DOTMA and DOPE, each. In these initial assays, cells were incubated with LNPs for up to 15 hours to complete the uptake and intracellular localization of DPPC-TC-ONOO−. Shorter incubation times (3-to-5 hours) led to its uptake but not subcellular localization. […] However, high serum concentration in DMEM caused interference between LNPs and serum-protein, resulting in aggregate formation as observed by microscopy. To overcome this obstacle, LNPs (50 μM) were used in a mixture of 2/3 volumetric ratio of sucrose solution and Opti-MEM™, a reduced serum medium known to increase the efficiency of lipofection. […] For a physiologically relevant stress model, the standard stimulation condition involving IFN-γ/LPS/PMA was employed. Treatment of cells with IFN-γ/LPS leads to the endogenous production of nitric oxide and PMA provokes increased levels of superoxide. These two reactive species combine to form peroxynitrite, as described elsewhere herein. […] The intracellular redox selectivity of DPPC-TC-ONOO^− was also assessed using N-(3-(aminomethyl)benzyl)-acetamidine, known as 1400 W, which inhibits the production of NO· by irreversibly binding to iNOS. […] To determine whether DPPC-TC-ONOO^− localizes and functions at a specific subcellular compartment in HeLa, a comprehensive colocalization study was performed with dyes specific for lipid-rich and membrane-enclosed organelles, including the ER, mitochondrion, Golgi apparatus, and lysosome (FIGS. 9D-9E). In addition, actin stain was used to gain a visual insight into the cytoskeletal structure of the whole cell. […]

[2] = Specificity of TEG-TC-H2S against other RSS
Procedure: (§1) The redox-specificities of the non-amphiphilic probes, TEG-TC-H2S or TEG-TF-H2O2, were assessed by subjecting them to various RSS or ROS (FIGS. 13A-13B). Change in fluorescence intensity following excitation of each sample containing the respective probe was measured over 120 minutes of incubation and presented based on the signal-to-background ratio F/F0, where F and F0 are defined as the fluorescence with and without the redox species. The F/F0 of the untreated samples were set to 1 for comparisons. […] Samples containing TEG-TF-H2O2 and treated with 100 μM H2O2 presented a steady fluorescence enhancement within 2 hours, resulting in 4.4-fold higher fluorescence than those of the untreated samples (FIG. 13B).
(§2) The specificity of TEG-TC-H2S toward H2S was evaluated by comparing its reactivity against different RSS, cysteine (Cys), glutathione (GSH), sulfite (SO3^2−), and thiosulfate (S2O3^2−). At 1 mM initial concentration and a total incubation time of 2 hours, these sulfur species induced an increase in coumarin fluorescence by less than 25% compared to the untreated sample (FIG. 13A). […] The specificity of TEG-TF-H2O2 toward H2O2 was also assessed, by incubating the samples containing TEG-TF-H2O2 with 100 μM either hydroxyl radical (·OH), nitric oxide (NO), or superoxide radical (O2·^−) for 2 hours. […]

[3] = Fluorescence activation and LoD of TEG-TC-H2S with H2S in Tris buffer
Procedure: FIGS. 13A-13D: specificity (FIGS. 13A-13B) and limit of detection (LoD) (FIGS. 13C-13D) of TEG-TC-H2S and TEG-TF-H2O2. LoD measurements for the probes TEG-TC-H2S (390/475 nm) and TEG-TF-H2O2 (485/525 nm) were performed in Tris buffer (50 mM, pH 7.5). Error bars represent the standard deviation; n=3. Single-tailed Student's t test: *, P<0.05; **, P<0.01; ***, P<0.001; ****, P<0.0001.
as §1
as §2, with “hours. Among these three reactive oxygen species, ·OH induced the highest fluorescence increase (2.2-fold), which was lower than that for H2O2 (4.4-fold). The relatively low yet observable reactivity of ·OH may have been due, in large part, to the residual unreacted H2O2 used for generating ·OH.” for “hours.”

[4] = Table 3, brightness compared to that of DPPC-TC-H2S
[5] = Table 3, brightness compared to that of DPPC-TF-H2O2

| Compound | Emmax [1] | Exmax [1] | Ext. Coeff. [1] | enhanced brightness, uncaging product vs caged probe [1] | Relative Brightness ([1]; Table 2, DPPC-TC-ONOO^− = 1.0) | Relative Brightness [1, 4] | Brightness [1] | Quantum Yield (relative fluorescence quantum yield ΦFrel) ([1]; standard coumarin 343) | IC50 (HeLa and RAW 264.7 cells) | Relative Brightness [1, 5] | Quantum Yield (relative fluorescence quantum yield ΦFrel) ([1]; standard fluorescein) | fluorescence at 405/475 nm (HeLa cells) | fluorescence activation in the presence of H2S compared to the other RSS [2] | increase in coumarin fluorescence compared to the untreated sample ([2]; Cys, GSH, SO3^2−, S2O3^2− at 1 mM, 2 hours) | fluorescence compared to the sample untreated ([3]; 1 mM H2S, 2 hours of incubation, Tris pH 7.5) | increase in fluorescence intensity ([3]; H2S 1 mM, 2 hours) | LoD ([3]; minimum H2S concentration at which F is statistically higher than F0, 390/475 nm, Tris 50 mM pH 7.5) |
| --- | --- | --- | --- | --- | --- | --- | --- | --- | --- | --- | --- | --- | --- | --- | --- | --- | --- |
| CCCCCCCCCCCCCCCC(=O)OCC(COP(=O)([O-])OCC[N+](C)(C)Cc1cn(-c2cc3ccc(O)cc3oc2=O)nn1)OC(=O)CCCCCCCCCCCCCCC (racemic) [DPPC-TC] | 472.0 nm | 398.0 nm | 13749 M⁻¹ cm⁻¹ | 120 fold | 35.1 | 122.2 | 8799 | 0.64 | ≥ 50 µM |  |  | strong coumarin fluorescence |  |  |  |  |  |
| oxa-spiro[4,5] decenone [Compound 6] |  |  |  |  |  |  |  |  | ≥ 70 µM |  |  |  |  |  |  |  |  |

Second part, led by results:

| Emmax [1] | Exmax [1] | Ext. Coeff. [1] | enhanced brightness, uncaging product vs caged probe [1] | Relative Brightness ([1]; Table 2, DPPC-TC-ONOO^− = 1.0) | Relative Brightness [1, 4] | Brightness [1] | Quantum Yield (relative fluorescence quantum yield ΦFrel) ([1]; standard coumarin 343) | IC50 (HeLa and RAW 264.7 cells) | Relative Brightness [1, 5] | Quantum Yield (relative fluorescence quantum yield ΦFrel) ([1]; standard fluorescein) | Compound | fluorescence at 405/475 nm (HeLa cells) | fluorescence activation in the presence of H2S compared to the other RSS [2] | increase in coumarin fluorescence compared to the untreated sample ([2]; Cys, GSH, SO3^2−, S2O3^2− at 1 mM, 2 hours) | fluorescence compared to the sample untreated ([3]; 1 mM H2S, 2 hours of incubation, Tris pH 7.5) | increase in fluorescence intensity ([3]; H2S 1 mM, 2 hours) | LoD ([3]; minimum H2S concentration at which F is statistically higher than F0, 390/475 nm, Tris 50 mM pH 7.5) |
| --- | --- | --- | --- | --- | --- | --- | --- | --- | --- | --- | --- | --- | --- | --- | --- | --- | --- |
| 523.6 nm | 498.1 nm | 28990 M⁻¹ cm⁻¹ |  |  |  | 18264 |  |  | 85.3 | 0.63 | CCCCCCCCCCCCCCCC(=O)OCC(COP(=O)([O-])OCC[N+](C)(C)Cc1cn(-c2ccc3c(c2)C(=O)OC32c3ccc(O)cc3Oc3cc(O)ccc32)nn1)OC(=O)CCCCCCCCCCCCCCC (racemic) [DPPC-TF] |  |  |  |  |  |  |
| 475.5 nm | 392.3 nm | 5347 M⁻¹ cm⁻¹ |  |  | 5.2 | 374 | 0.07 |  |  |  | [N-]=[N+]=Nc1ccc(COc2ccc3cc(-n4cc(COCCOCCOCCO)nn4)c(=O)oc3c2)cc1 [TEG-TC-H2S] |  | ≥ 5 fold | less than 25% | 2.2 fold | 120% | 100 µM |
| 522.6 nm | 494.3 nm | 35982 M⁻¹ cm⁻¹ |  |  |  | 26267 |  |  | 122.7 | 0.73 | O=C1OC2(c3ccc(O)cc3Oc3cc(O)ccc32)c2ccc(-n3cc(COCCOCCOCCO)nn3)cc21 [TEG-TF] |  |  |  |  |  |  |
